Test results reported in ChEMBL document CHEMBL3507680, “University of Dundee, Gates Library screen for HepG2 cell viability”.

Assay: Human HepG2 cell viability assay in 384 well format
Assay type: toxicity, cell-based
Design: dose 125 nL, time 70.5 hour; cytotoxicity at 70.5 h: concentration not given beside the values
Conditions: HepG2 cells, read-out: Inhibition

| SMILES | cytotoxicity at 70.5 h [%] |
| --- | --- |
| O=C(C1CCC1)N1CCn2c(COc3ncccn3)nnc2C1 | 1.54 |
| Cc1nc([C@@H]2C[C@@H]3CCN(C(=O)Cc4ccsc4)C[C@H]3O2)no1 | -13.8 |
| COc1ncccc1C(=O)N1CCn2c(COCC3CC3)cnc2C1C (stereo unspecified) | -0.554 |
| O=C(NCCO)c1ccn(-c2ccc3ccccn23)n1 | 25.4 |
| CC(C)c1nccc([C@H]2C[C@@H]3CCN(Cc4ccco4)C[C@H]3O2)n1 | -9.27 |
| COC[C@@H]1CC[C@H]2[C@H](CCN2S(=O)(=O)c2cccc(C)c2)O1 | -11.1 |
| CC(C)CNC(=O)c1ccc2nnc(C3CCN(S(C)(=O)=O)C3)n2c1 (stereo unspecified) | -19.7 |
| O=c1cc(Cn2cncn2)nc2n1CCCN(CC1CC1)C2 | -33 |
| Cc1ccc(CN2CCCn3c(nc(Cn4cncn4)cc3=O)C2)s1 | -19.3 |
| CS(=O)(=O)N1CCC2(CC1)CC(CC(=O)NC1CC1)c1ccccc12 (stereo unspecified) | -20.3 |
| Fc1cccc(CN2CCO[C@H]3[C@@H](OCc4ccccn4)CC[C@@H]32)c1 | -15.5 |
| Cn1cc(CNCC2Cn3nnc(-c4ccccc4)c3CO2)cn1 (stereo unspecified) | -16.3 |
| Cn1cc(CN2CCC3(CCCN3S(C)(=O)=O)CC2)cn1 | 12.4 |
| Cc1ccsc1C(=O)N1Cc2ccccc2C2(CCN(C)CC2)C1 | -6.4 |
| CCO[C@H]1CO[C@@]2(CCCN(S(=O)(=O)c3ccccc3)C2)C1 | 1.01 |
| OCCNc1cc(-c2ccccc2)ncn1 | -1.96 |
| OCCNc1cc(-c2ccncc2)ncn1 | 0.654 |
| C[C@H](O)CNc1cc(-c2ccccc2)ncn1 | -0.249 |
| Cc1ncncc1-c1ccnc(NC(C)C)n1 | -2.82 |

| SMILES | cytotoxicity at 70.5 h [%] |
| --- | --- |
| C[C@H](O)CNc1cc(-c2ccncc2)ncn1 | -0.809 |
| Cc1ccc2c(c1)[C@@H](CC(=O)N(C)C)CCO2 | -2.63 |
| COc1cc(-c2cc(N)ncn2)cc(OC)c1OC | -6.28 |
| COc1cc(-c2cc(OC)c(OC)c(OC)c2)ncn1 | -6.68 |
| COCC(=O)NCC[C@H]1CC(C)(C)Oc2ccccc21 | -3.02 |
| CN(C)c1nccc(NCc2cc(-c3ccco3)n[nH]2)n1 | -3.1 |
| CN1CC(=O)c2sc(NCCc3ccccc3)nc2C1 | 30 |
| Cc1ccc2c(c1)[C@@H](CC(=O)N1CCN(C)CC1)CCO2 | 3.15 |
| CNCC[C@H]1CC(C)(C)Oc2ccc(OCC3CC3)cc21 | 7.09 |
| O=c1[nH][nH]cc1-c1ccnc(NCCc2ccc(F)cc2)n1 | -6.1 |
| CNCC(=O)Nc1cccc(-c2cnc(NCCO)nc2)c1 | -1.04 |
| COCCCNc1nc(CNC(C)=O)cc(-c2ccco2)n1 | -8.32 |
| CC1(C)C[C@H](CCNC(=O)c2ccncc2)c2ccccc2O1 | -10 |
| Cc1[nH]c2ccccc2c1-c1ccnc(N[C@@H](CO)C(C)C)n1 | -3.22 |
| CNc1ncc(-c2ccc(NC(=O)[C@@H]3CCCCN3)cc2)cn1 | -1.05 |
| Cc1ncc(-c2ccnc(NCCO)n2)c(C2CCCCC2)n1 | 21.9 |
| CC1(c2ccccc2)CCC(=O)N(CCN2CCOCC2)C1 (stereo unspecified) | -5.69 |
| CN(C(=O)CC1=CCCCC1)C1CCCN(CCc2ccccc2)C1 (stereo unspecified) | -5.66 |
| CCC(=O)Nc1cccc(OCC(=O)N(C)Cc2cc(COC)[nH]n2)c1 | -4.96 |

| SMILES | cytotoxicity at 70.5 h [%] |
| --- | --- |
| CC(=O)Nc1ccc(CNCc2cccnc2N(C)C)cc1 | 1.4 |
| Cc1cccc(C2CCCN(C(=O)C3CCN(CC(N)=O)CC3)C2)c1 (stereo unspecified) | -17.7 |
| Cc1ccc(C2(O)CCN(Cc3nnc(-c4cccnc4)o3)CC2)nc1 | -2.19 |
| Cc1ccccc1CC1(C(=O)O)CCCN(c2ncccn2)C1 (stereo unspecified) | -7.63 |
| NC(=O)Cn1ccnc1C1CCCN(CCSc2ccccc2)C1 (stereo unspecified) | -12.6 |
| Cc1cc(F)ccc1OC1(C(=O)O)CCN(Cc2nccn2C)CC1 | -7.09 |
| Cc1ncsc1CN1CC(C)(C2CC2)CC1=O (stereo unspecified) | -12.2 |
| Cc1ccc(Cl)c(CN2CCN(C)C(C(=O)O)C2)c1F (stereo unspecified) | -5.85 |
| COc1ccc(F)c(CN2CCCC(O)(CNCc3ccon3)C2=O)c1 (stereo unspecified) | 8.61 |
| N#Cc1cccc(N2CCC(c3nccn3Cc3cscn3)CC2)n1 | -2.31 |
| O=C(N[C@@H]1CCNC[C@H]1O)c1ccc(-c2ccc(F)cc2)cc1 | -1.9 |
| Cc1ccc(-n2ccnc2-c2cn(C3CCNCC3)nn2)c(Cl)c1 | 2.06 |
| Cc1cc(C)n(Cc2cc(C(=O)N[C@H]3CCCCNC3=O)n[nH]2)n1 | -3.71 |
| CCNc1ccnc(N2CCN(Cc3ncccc3C)CC2)n1 | 3.6 |
| CCCn1nc(C)c(CN2CC3(CCOC3)CCC2=O)c1C (stereo unspecified) | -8.62 |
| Cc1ccc(OC2(C(=O)O)CCN(C(=O)c3ccccc3F)CC2)cn1 | -3.34 |
| CN(C)c1nc(NCCc2ccccn2)ncc1F | 25.5 |
| CN1CCN(Cc2c(Cl)ccc(O)c2Cl)CC1C(=O)O (stereo unspecified) | -16.7 |
